Measured values reported in patent US20040248775A1, “Methods for screening inhibitors of apoptosis” (Wyeth, priority 2003, published 2004).

Biological target: T1, NBS mutant NALP1 (Homo sapiens, UniProt Q9C000, G339E/K340A)
T1 construct: to generate full-length NALP1 in frame with EGFP; expressed in transfected cells; host or cells: HeLa cells, transient transfection; S-100 extract used
T1 sequence (Q9C000 1-1473 G339E/K340A): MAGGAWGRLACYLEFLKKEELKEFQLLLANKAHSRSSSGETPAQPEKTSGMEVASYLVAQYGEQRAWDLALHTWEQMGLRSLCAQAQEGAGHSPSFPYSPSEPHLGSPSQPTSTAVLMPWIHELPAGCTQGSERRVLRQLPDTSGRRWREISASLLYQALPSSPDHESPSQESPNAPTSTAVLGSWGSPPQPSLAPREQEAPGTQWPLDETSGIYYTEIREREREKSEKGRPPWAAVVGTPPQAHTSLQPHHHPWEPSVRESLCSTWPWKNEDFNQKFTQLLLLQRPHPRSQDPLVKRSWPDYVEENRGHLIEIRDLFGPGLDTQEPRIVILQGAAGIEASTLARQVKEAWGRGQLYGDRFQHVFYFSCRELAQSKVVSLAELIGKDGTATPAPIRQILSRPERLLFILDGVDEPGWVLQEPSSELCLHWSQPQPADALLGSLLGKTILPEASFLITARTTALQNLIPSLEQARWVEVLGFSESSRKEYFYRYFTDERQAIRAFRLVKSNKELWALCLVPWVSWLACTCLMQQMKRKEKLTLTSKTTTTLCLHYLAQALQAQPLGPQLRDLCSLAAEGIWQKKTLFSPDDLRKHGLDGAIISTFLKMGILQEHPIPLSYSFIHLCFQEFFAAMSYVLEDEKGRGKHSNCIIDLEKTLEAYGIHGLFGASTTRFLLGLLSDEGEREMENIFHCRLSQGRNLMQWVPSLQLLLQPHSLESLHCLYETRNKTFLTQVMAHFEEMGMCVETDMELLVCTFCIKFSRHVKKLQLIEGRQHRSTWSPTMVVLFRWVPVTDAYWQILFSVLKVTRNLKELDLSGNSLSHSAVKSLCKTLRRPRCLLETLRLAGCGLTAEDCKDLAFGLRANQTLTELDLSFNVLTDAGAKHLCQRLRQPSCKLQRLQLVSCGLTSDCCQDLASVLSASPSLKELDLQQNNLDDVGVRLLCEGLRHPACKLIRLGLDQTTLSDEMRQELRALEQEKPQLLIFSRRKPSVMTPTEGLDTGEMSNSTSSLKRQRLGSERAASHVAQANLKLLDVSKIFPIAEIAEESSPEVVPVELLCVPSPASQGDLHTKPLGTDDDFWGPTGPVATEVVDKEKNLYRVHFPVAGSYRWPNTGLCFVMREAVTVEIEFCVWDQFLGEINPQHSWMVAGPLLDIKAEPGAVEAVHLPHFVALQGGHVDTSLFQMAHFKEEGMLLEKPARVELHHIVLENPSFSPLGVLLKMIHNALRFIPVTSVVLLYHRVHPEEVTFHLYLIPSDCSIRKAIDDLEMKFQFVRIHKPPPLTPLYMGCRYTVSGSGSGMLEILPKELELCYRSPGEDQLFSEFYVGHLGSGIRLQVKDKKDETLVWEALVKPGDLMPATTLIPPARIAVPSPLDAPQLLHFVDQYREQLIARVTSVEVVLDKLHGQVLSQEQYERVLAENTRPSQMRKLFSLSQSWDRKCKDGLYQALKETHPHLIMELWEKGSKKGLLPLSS
Test: Fluorimetric DEVDase (caspase-3) assay in HeLa cell extracts expressing NBS mutant NALP1-EGFP
Type: biochemical
Details: 2 mM dATP, 2 mM MgCl2, 1 hour, Ac-DEVD-AMC substrate
Procedure: Cell extract preparation and fluorimetric assay of caspase activity. Preparation of cell extracts, dATP incubation and caspase-3 activities assays were performed as described by Liu et al. (1996). Briefly, HeLa cells were grown in DMEM, 10% FBS. Cells were plated in T175 flasks to 60% confluence. Control vector pEGFP or wild-type or NBS mutant NALP1-EGFP expression plasmids were transfected into HeLa cells using Lipofectamine Plus. Cells were collected in homogenization buffer (20 mM HEPES pH 7.5, 10 mM KCl, 1 mM sodium EDTA, […], 1 mM sodium EGTA, 0.1% CHAPS, 1 mM DTT, 0.1 mM PMSF and protease inhibitor cocktail tablets (Roche)), 24 hours after transfection. Cells were chilled on ice for 15 minutes and homogenized by douncing 30 times in a glass douncer. Samples were centrifuged at 1000×g for 10 minutes at 4° C. […] After 2 hours incubation, liberation of AMC (7-amino-4-methylcoumarin) from the substrate was monitored using excitation/emission wavelength pairs (λex/λem) of 380/460 nm using a SpectraFluor Plus instrument (Tecan). Triplicate samples were evaluated with or without specific inhibitors. […] Normalized data from multiple experiments were expressed as means±standard deviation. For each experiment, the expression of EGFP-tagged NALP1 proteins was analyzed by anti-GFP immunoblot and quantified by densitometry.

DEVDase activity, extracts with NBS mutant NALP1: did not respond
Compound: Nc1ncnc2c1ncn2[C@H]1C[C@H](O)[C@@H](COP(=O)(O)OP(=O)(O)OP(=O)(O)O)O1 [dATP]
